Laboratory results: patent publication US20240025875A1, “A COMPOUND AS A THYROID HORMONE BETA RECEPTOR AGONIST AND USE THEREOF” (SUNSHINE LAKE PHARMA CO., LTD., priority 2020, published 2024)

Columns and labels:
[1] = molecular target: T1, TRβ (Homo sapiens, UniProt P10828); experiment: LanthaScreen TR-FRET Thyroid Receptor beta Coactivator Assay (in vitro binding activity); conditions: TR beta-LBD
T1 construct: 5 μL of 4×TR beta/alfa-LBD; purchased Invitrogen PV4686
T1 sequence (P10828 217-461 limits assumed): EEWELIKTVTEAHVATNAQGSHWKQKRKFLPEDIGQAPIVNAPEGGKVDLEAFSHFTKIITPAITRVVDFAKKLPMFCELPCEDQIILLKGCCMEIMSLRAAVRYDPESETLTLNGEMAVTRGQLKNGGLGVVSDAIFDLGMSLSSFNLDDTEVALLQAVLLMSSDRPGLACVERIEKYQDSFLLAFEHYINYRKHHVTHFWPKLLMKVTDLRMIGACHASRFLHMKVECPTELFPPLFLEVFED
Outline: (§1)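 TR-FRET coactivator recruitment used GST-tagged TRα or TRβ ligand-binding domain with fluorescein-SRC2-2 peptide and Tb anti-GST antibody (0.4 μM and 8 nM in the added mix). Compound was run as 10-point 3-fold dilutions (2% DMSO solution) for 1 h at room temperature in the dark. EC50 came from the 520/495 nm emission ratio.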

[2] = molecular target: T2, TRα (Homo sapiens, UniProt P10827); experiment: LanthaScreen TR-FRET Thyroid Receptor alfa Coactivator Assay (in vitro binding activity); conditions: TR alfa-LBD
T2 construct: 5 μL of 4×TR beta/alfa-LBD; purchased Invitrogen PV4687
Outline: as §1

[3] = Pharmacokinetic determination in SD rats (i.v. and i.g.); type: in vivo; conditions: for AUC(0-inf) / AUC(0-t) / Cmax / clearance / half-life / Vd: male, Sprague-Dawley (SD), rat, plasma; for Vd: read-out: VSS
Excerpt: Test purposes: The following method was used to determine the pharmacokinetics of the compound of the present invention.
Test Materials: • Experimental reagents and test samples used: Propranolol (internal standard), methanol, ammonium acetate, K2EDTA (potassium ethylenediaminetetraacetic acid), formic acid, acetonitrile MTBE (methyl tert-butyl ether). KolliphorHS15 (macrogol 12 hydroxystearate), DMSO (dimethyl sulfoxide) are commercially available • SD rats: male, 180-220 g, 7-8 weeks old, purchased from Human Slack Experimental Animal Co., Ltd.
Each test sample prepared was completely dissolved in a mixture of 5% DMSO+5% KolliphorHS 15+90% Saline according solubility property thereof.
Samples were processed by liquid-liquid extraction, chromatographically separated, quantitatively analyzed by multiple reaction ion monitoring (MRM) on a triple quadrupole tandem mass spectrometer, and the concentration of the results was calculated by instrument quantitative software.
30 μL of plasma sample was precisely pipetted, added with 250 μL of internal standard, and vortexed to mix thoroughly. Plasma samples was extracted once with 1 mL of MTBE, centrifuged at 13,000 rpm for 2 min at 4° C. 800 μL of the supernatant was sucked out, evaporated to dryness in a 96-well nitrogen blower, and the residue was reconstituted with 150 μL of methanol/water (v/v=50/50), vortexed to mix, and injected with an injection volume of 8 μL.
LC/MS/MS method was used to determine the content of the test compound in rat plasma after administration of different compounds.
Pharmacokinetic parameters were calculated using a noncompartmental method by WinNonLin 6.1 software.

T2 sequence (P10827 163-410 isoform P10827-2 limits assumed, other chains not shown): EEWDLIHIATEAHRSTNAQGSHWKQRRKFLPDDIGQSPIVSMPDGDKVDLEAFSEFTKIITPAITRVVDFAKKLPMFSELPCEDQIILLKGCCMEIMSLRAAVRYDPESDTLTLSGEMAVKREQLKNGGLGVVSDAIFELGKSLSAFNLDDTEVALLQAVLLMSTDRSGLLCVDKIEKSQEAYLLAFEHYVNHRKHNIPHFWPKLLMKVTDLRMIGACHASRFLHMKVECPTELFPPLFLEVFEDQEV

Structure (SMILES) | EC50 [1] | EC50 [2] | F ([3]; ig, 5 mg/kg) | AUC(0-inf) ([3]; iv, 1 mg/kg) | AUC(0-t) ([3]; iv, 1 mg/kg) | Cmax ([3]; iv, 1 mg/kg) | clearance ([3]; iv, 1 mg/kg) | half-life ([3]; iv, 1 mg/kg) | Vd ([3]; iv, 1 mg/kg) | AUC(0-inf) ([3]; po, ig, 5 mg/kg) | AUC(0-t) ([3]; po, ig, 5 mg/kg) | Cmax ([3]; po, ig, 5 mg/kg) | half-life ([3]; po, ig, 5 mg/kg)
O=C1c2ccc(Oc3c(Cl)cc(-n4ncc(=O)[nH]c4=O)cc3Cl)cc2CCN1Cc1ccccn1 [Example 46, 2-(3,5-dichloro-4-((1-oxo-2-(pyridin-2-ylmethyl)-1,2,3,4-tetrahydroisoquinolin-6-yl)oxy)phenyl)-1,2,4-triazine-3,5(2H,4H)-dione] | 0.035 µM | > 100 µM | 126.5% | 10000 ng·h/mL | 9810 ng·h/mL | 4160 ng/mL | 1.66 mL/min/kg | 4.24 h | 0.424 L/kg | 633000 ng·h/mL | 61900 ng·h/mL | 6410 ng/mL | 5.93 h
O=C1c2ccc(Oc3c(Cl)cc(-n4ncc(=O)[nH]c4=O)cc3Cl)cc2CCN1Cc1cccc(C(F)(F)F)c1 [Example 34, 2-(3,5-dichloro-4-((2-(3-(trifluoromethyl)benzyl)-1-oxo-1,2,3,4-tetrahydroisoquinolin-6-yl)oxy)phenyl)-1,2,4-triazine-3,5(2H,4H)-dione] | 0.021 µM | > 100 µM | 111% | 22400 ng·h/mL | 18800 ng·h/mL | 3020 ng/mL | 0.744 mL/min/kg | 9.87 h | 0.531 L/kg | 124000 ng·h/mL | 110000 ng·h/mL | 8460 ng/mL | 7.67 h
O=C1c2ccc(Oc3c(Cl)cc(-n4ncc(=O)[nH]c4=O)cc3Cl)cc2CCN1Cc1ccc(F)cc1 [Example 20, 2-(3,5-dichloro-4-((2-(4-fluorobenzyl)-1-oxo-1,2,3,4-tetrahydroisoquinolin-6-yl)oxy)phenyl)-1,2,4-triazine-3,5(2H,4H)-dione] | 0.012 µM | > 100 µM | 115.1% | 16400 ng·h/mL | 16300 ng·h/mL | 3990 ng/mL | 1.01 mL/min/kg | 3.16 h | 0.251 L/kg | 94400 ng·h/mL | 93700 ng·h/mL | 10400 ng/mL | 3.57 h
